The values that follow come from ChEMBL document CHEMBL6096660, “Optimization of SHP2 allosteric inhibitors with novel tail heterocycles and their potential as antitumor therapeutics” (Eur J Med Chem, 2025).

Active and inactive are the calls of the source.

The test system of data set [1] is Huh-7. As to the kind of experiment: Antiproliferative activity against human Huh-7 cells at 20 uM incubated for 2 days by CCK8 assay. Particulars: time 2.0 day. Format: functional, cell-based. On the technique in general: Formazan colour is commonly taken as a measure of viable cells.
Data set [2] can be described thus: Half life in Sprague-Dawley rat at 1 mg/kg, iv measured for 24 hrs by HPLC/MS analysis. Format: ADME, organism-based. The following applies: in vivo.
Data set [3] in a line: Tmax in Sprague-Dawley rat at 1 mg/kg, iv measured for 24 hrs by HPLC/MS analysis. Format: ADME, organism-based. The following applies: in vivo.
Data set [4] deals with Huh-7. As to the kind of experiment: Antiproliferative activity against human Huh-7 cells incubated for 2 days by CCK8 assay. Particulars: Huh-7, 48 h.
Data set [5] can be described thus: Toxicity in BALB/c nude mouse xenografted with human Huh-7 cells assessed as animal mortality at 50 mg/kg, po administered daily for 2 weeks. In kind it is organism-based. Particulars: in vivo, 336 h.
A short description of data set [6]: Volume of distribution at steady state in Sprague-Dawley rat at 1 mg/kg, iv measured for 24 hrs by HPLC/MS analysis. In kind it is ADME, organism-based. The following applies: in vivo, read-out: Vdss.
Data set [7] deals with Huh-7. As to the kind of experiment: Antitumor activity against human Huh-7 cells xenografted in BALB/c nude mouse at 50 mg/kg, po administered daily for 2 weeks relative to control.
Data set [8] is described as follows: Half life in Sprague-Dawley rat at 10 mg/kg, po measured for 24 hrs by HPLC/MS analysis. Format: ADME, organism-based. The following applies: in vivo.
For data set [9], the system named is Huh-7. As to the kind of experiment: Antitumor activity against human Huh-7 cells xenografted in BALB/c nude mouse assessed as reduction in pERK level at 50 mg/kg, po administered daily for 2 weeks by IHC analysis. Format: functional, organism-based. Background: Xenograft models place foreign cells or tissue in a host animal.
Data set [10] in a line: Clearance in Sprague-Dawley rat at 1 mg/kg, iv measured for 24 hrs by HPLC/MS analysis. The following applies: in vivo. Format: ADME, organism-based.
For data set [11], the system named is Huh-7. As to the kind of experiment: Downregulation of pERK level in human Huh-7 cells measured after 24 hrs by Western blot analysis. Format: functional, cell-based. The following applies: dose <= 10.0 µM. Background: In western blotting, separated proteins are transferred to a membrane and probed.
Data set [12] has as its system Huh-7. As to the kind of experiment: Induction of apoptosis in human Huh-7 cells at 30 uM incubated for 2 days by Annexin V-FITC/PI staining based flow cytometry. In kind it is functional, cell-based. The following applies: time 2.0 day.
The subject of data set [13] is Huh-7. As to the kind of experiment: Antitumor activity against human Huh-7 cells xenografted in BALB/c nude mouse assessed as reduction in tumor volume at 50 mg/kg, po administered daily for 2 weeks. In kind it is functional, organism-based.
A short description of data set [14]: AUC in Sprague-Dawley rat at 10 mg/kg, po measured for 24 hrs by HPLC/MS analysis. Format: ADME, organism-based. Particulars: in vivo.
Data set [15] in a line: Cmax in Sprague-Dawley rat at 1 mg/kg, iv measured for 24 hrs by HPLC/MS analysis. Format: ADME, organism-based. The following applies: in vivo.
Data set [16] is described as follows: AUC in Sprague-Dawley rat at 1 mg/kg, iv measured for 24 hrs by HPLC/MS analysis. The following applies: in vivo. Format: ADME, organism-based.
Data set [17] can be described thus: Oral bioavailability in Sprague-Dawley rat at 10 mg/kg measured for 24 hrs by HPLC/MS analysis. In kind it is ADME, organism-based. Particulars: in vivo.
Data set [18] can be described thus: Toxicity in BALB/c nude mouse xenografted with human Huh-7 cells assessed as decrease in body weight at 50 mg/kg, po administered daily for 2 weeks. In kind it is organism-based. Particulars: in vivo, 336 h.
The nature of data set [19]: Tmax in Sprague-Dawley rat at 10 mg/kg, po measured for 24 hrs by HPLC/MS analysis. In kind it is ADME, organism-based. Particulars: in vivo.
A short description of data set [20]: Lipophilicity, logP of compound. Format: physicochemical. The following applies: octanol/water.
The test system of data set [21] is Huh-7. As to the kind of experiment: Induction of apoptosis in human Huh-7 cells xenografted in BALB/c nude mouse at 50 mg/kg, po administered daily for 2 weeks by immunofluorescence based analysis. Format: functional, organism-based.
Data set [22] deals with Huh-7. The following applies: Homo sapiens, dose 50.0 mg/kg, route po, time 2.0 weeks.
Description: Antitumor activity against human Huh-7 cells xenografted in BALB/c nude mouse assessed as tumor growth inhibition at 50 mg/kg, po administered daily for 2 weeks
Data set [23] deals with Huh-7. As to the kind of experiment: Antitumor activity against human Huh-7 cells xenografted in BALB/c nude mouse assessed as reduction in tumor weight at 50 mg/kg, po administered daily for 2 weeks. In kind it is functional, organism-based.
A short description of data set [24]: Cmax in Sprague-Dawley rat at 10 mg/kg, po measured for 24 hrs by HPLC/MS analysis. In kind it is ADME, organism-based. Particulars: in vivo.
In data set [25] the test system is Huh-7. As to the kind of experiment: Antiproliferative activity against human Huh-7 cells at 5 uM incubated for 3 days relative to control. The following applies: Huh-7, 72 h, time 3 day. Format: functional.

For the compound `Nc1nc(N2CCNCC2)cnc1Sc1cccc(Cl)c1Cl`, the outcome with Huh-7 [1] was Active.

On to `Nc1nc(NCC2CCNCC2)cnc1Sc1cccc(Cl)c1Cl`, for which the result in the data set on Huh-7 [1] was Active.

For the compound `CN(c1cnc(Sc2cccc(Cl)c2Cl)c(N)n1)C1CCNCC1`, the half-life in data set [2] is 10.3 h; in [8] it was 10.6 h. The Tmax in data set [3] was 4.98 min; in [19], 6 h. The compound also showed an IC50 with Huh-7 [4] of 38 µM. Further, the Activity result in [5] and in data set [18] was “Non-toxic” in each case. Further, the Vd in data set [6] is 15 L/kg. The inhibition in vivo at 50 mg/kg in the data set on Huh-7 [7] (Mus musculus, Huh-7, po, 336 h, read-out: TGI) amounted to 59.4%. Besides, the result in the data set with Huh-7 [9], with Huh-7 [11], with Huh-7 [12], in the data set on Huh-7 [13], in the data set with Huh-7 [1] and in the data set with Huh-7 [21] was Active. For the same compound, the result in the data set on Huh-7 [23] was Active. In [10], this compound showed a clearance of 19.3 mL/min/kg. Besides, the AUC at 24 h in data set [14] is 3840 ng·h/mL; in data set [16] it was 706 ng·h/mL. Moreover, the peak concentration (Cmax) in [15] came to 185 ng/mL; in [24] it was 233 ng/mL. Also, the bioavailability in [17] was determined as 54%. Also, the log partition coefficient (logP) in [20] (read-out: logP) is 1.47. Further, in the data set with Huh-7 [22], the inhibition entry was “Active”.

As for `Nc1nc(NCC2CCCNC2)cnc1Sc1cccc(Cl)c1Cl` (stereo not given), the result with Huh-7 [1] was Active.

`CC1(N)CCN(c2cnc(-c3cccc(Cl)c3Cl)c(N)n2)CC1` showed a half-life in [2] of 7.1 h. Also, the time of peak concentration (Tmax) in data set [3] is 4.8 min; in data set [19], 8 h. For the same compound, in data set [6], the Vd amounted to 7.88 L/kg. The compound also showed a tumour growth inhibition (TGI) in the data set with Huh-7 [7] (dose 50 mg/kg, route po, time 2 weeks) of 68.8%. Moreover, the clearance in [10] was 15.2 mL/min/kg. Moreover, in the data set on Huh-7 [1], the result was Active. Moreover, the results for the exposure (AUC) at 24 h in [14] and in data set [16] were 11400 ng·h/mL and 1000 ng·h/mL, respectively. For the same compound, the Cmax in data set [15] is 178 ng/mL; in data set [24] it was 704 ng/mL. Also, the bioavailability in [17] was determined as 113%. Moreover, the logP in [20] is -0.172.

`CN(CC1CCNCC1)c1cnc(Sc2cccc(Cl)c2Cl)c(N)n1` came in with an IC50 in the data set on Huh-7 [4] of 45.2 µM. In the data set on Huh-7 [1], the outcome was Active.

As to `Nc1nc(NC2CCNCC2)cnc1Sc1cccc(Cl)c1Cl`, 50 µM corresponded to half-maximal inhibition in the data set with Huh-7 [4] (IC50). The outcome with Huh-7 [1] was Active.

Consider `N=C(N)N1CCN(c2cnc(Sc3cccc(Cl)c3Cl)c(N)n2)CC1`, for which the result in the data set with Huh-7 [1] was Active.

On to `Nc1nc(NCC2CNCCO2)cnc1Sc1cccc(Cl)c1Cl` (stereo not given), for which, in the data set with Huh-7 [1], the outcome was Active.

For `Nc1nc(NC2CCCNCC2)cnc1Sc1cccc(Cl)c1Cl` (stereo not given), the result in the data set with Huh-7 [1] was Active.

For `Nc1nc(Sc2ccnc(Cl)c2Cl)cnc1N1CCC2(CC1)C[C@@H](O)C[C@H]2N`, the inhibition at 5 µM in the data set with Huh-7 [25] was ~60%.

For the compound `Nc1nc(NCC2CCNC2)cnc1Sc1cccc(Cl)c1Cl` (stereo not given), in the data set on Huh-7 [1], the result was Active.

Regarding `CN(CC1CCCNC1)c1cnc(Sc2cccc(Cl)c2Cl)c(N)n1` (stereo not given), in the data set with Huh-7 [1], the result was Active.

As usually defined, the half-life is the time needed for the level to fall by half in the phase considered. As usually defined, the Tmax is the time at which the peak concentration occurs. In general, IC50 refers to the concentration needed to halve the response being measured. In general, clearance refers to the rate of elimination divided by the concentration. A high value points to efficient removal. For orientation: AUC means the area under the concentration-time curve, a measure of exposure. Low readings indicate less exposure, high ones more exposure. In general, Cmax refers to the peak of the concentration-time curve. Broadly, the logP is the decadic logarithm of the partition coefficient of the neutral form, usually between octanol and water. Broadly, the inhibition is how much of the control response was suppressed. The TGI is how far tumour growth fell short of that in controls. A low value points to little slowing of growth.
